These results are taken from patent publication US5763404A, “Methods for using LHRH antagonists with low histamine release” (priority 1995, dated 1998).

Starred links: 1 amine or outer side, 2 acyl side, 3 side chain; linkers in the order of their positions; H or OH if unused. Non-standard residues stand in square brackets, D forms with d. Residues, ends and D or L forms follow the SMILES beside them. *: point of attachment. dAla(cis-4-NHCOPyz-cHex) = N[C@H](C[C@H]1CC[C@@H](NC(=O)c2cnccn2)CC1)C(=O)O; X5 = O=C([C@H](CCCCNC1CCCC1)N[*:1])[*:2]; dPhe(4-Cl) = N[C@H](Cc1ccc(Cl)cc1)C(=O)O; d2Nal = N[C@H](Cc1ccc2ccccc2c1)C(=O)O; dLys(Me2) = CN(C)CCCC[C@@H](N)C(=O)O; Lys(iPr) = CC(C)NCCCC[C@H](N)C(=O)O; Orn(iPr) = CC(C)NCCC[C@H](N)C(=O)O; NH(4-MeO-phenyl) = COc1ccc(N*)cc1; d3Pal = N[C@H](Cc1cccnc1)C(=O)O; Nicotinoyl = O=C(c1cccnc1)*; Picolinoyl = O=C(c1ccccn1)*; Pip = O=C(O)[C@@H]1CCCCN1; Abu = CC[C@H](N)C(=O)O

One data set has as its system anaesthesized rats. In words: wheal test, intradermal injection. As to conditions: 10 ug peptide intradermally. Also noted: Wheal (wheal response): unit not given here. The format is in vivo, rat. As for the experimental part: The antiovulatory activity, AOA, in rats was determined as described by Humphries et al. (12). Antiovulation assays were performed by counting, on estrus, the number of ova shed by 4-day cycling rats after a single sc injection of the LH-RH analogue in corn oil was administered between 12 and 12:30 p.m. on […]. The control rats received 0.3 mL of the vehicle. The wheal test was performed by intradermally injecting 10 ug of peptide in 100 ul of saline into anaesthesized rats, measuring the ideally circular wheal response and calculating the area. The in vitro histamine release test was done as described by Karten et al. (4). A suspension of rat mast cells was added to increasing concentrations of peptide and the mixture was incubated for a few minutes followed by centrifugation to collect the histamine in the supernatant. A PIPES (piperazine-N,N'-bis[2-ethanesulfonic acid]) medium buffered at pH 7.4 containing NaCl 119 mM, KCl 5 mM, PIPES 25 mM, NaOH 40 mM, glucose 5.6 mM, CaCl2 1 mM, and 0.1% bovine serum albumin was used. This was designated as PIPES AC. Peptides were dissolved in double distilled H2 O at a concentration of 2 mg/ml and stored at -20° C. They were thawed just prior to testing, diluted in PIPES AC and prewarmed for five minutes at 37° C. Peptides studied were stable to heating at 56° C. for two hours, and to freezing and thawing.
Regarding `CC(=O)N[C@H](Cc1ccc2ccccc2c1)C(=O)N[C@H](Cc1ccc(Cl)cc1)C(=O)N[C@H](Cc1cccnc1)C(=O)N[C@@H](CO)C(=O)N[C@@H](CCCCNC(=O)c1ccccn1)C(=O)N[C@H](C[C@H]1CC[C@@H](NC(=O)c2cnccn2)CC1)C(=O)N[C@H](C(=O)N[C@@H](CCCCNC(C)C)C(=O)N1CCC[C@H]1C(=O)N[C@H](C)C(N)=O)C(C)C` [compound 26325] (Ac-[d2Nal][dPhe(4-Cl)][d3Pal]SK(Picolinoyl)[dAla(cis-4-NHCOPyz-cHex)]V[Lys(iPr)]P[dA]-NH2), the “Wheal Area” value came to 127.8 ± 4.9 mm^2 /10 μg. Regarding `CC[C@H](NC(=O)[C@@H](CCCCNC(=O)c1ccccn1)NC(=O)[C@H](CCCCNC(=O)c1ccccn1)NC(=O)[C@H](CO)NC(=O)[C@@H](Cc1cccnc1)NC(=O)[C@@H](Cc1ccc(Cl)cc1)NC(=O)[C@@H](Cc1ccc2ccccc2c1)NC(C)=O)C(=O)N[C@@H](CCCNC(=N)N)C(=O)N1CCC[C@H]1C(=O)N[C@H](C)C(N)=O` [compound 26346] (Ac-[d2Nal][dPhe(4-Cl)][d3Pal]SK(Picolinoyl)[dK](Picolinoyl)[Abu]RP[dA]-NH2), the “Wheal Area” value is 113.2 ± 5.4 mm^2 /10 μg. Still for that read-out and setting: to `CC(=O)N[C@H](Cc1ccc2ccccc2c1)C(=O)N[C@H](Cc1ccc(Cl)cc1)C(=O)N[C@H](Cc1cccnc1)C(=O)N[C@@H](CO)C(=O)N[C@@H](CCCCNC(=O)c1ccccn1)C(=O)N[C@H](CCCCNC(=O)c1ccccn1)C(=O)N[C@@H](CC(C)C)C(=O)N[C@@H](CCCCNC(C)C)C(=O)N1CCCC[C@H]1C(=O)N[C@H](C)C(N)=O` [compound 25937] (Ac-[d2Nal][dPhe(4-Cl)][d3Pal]SK(Picolinoyl)[dK](Picolinoyl)L[Lys(iPr)][Pip][dA]-NH2) belongs 95.0 ± 0 mm^2 /10 μg; to `CC(=O)N[C@H](Cc1ccc2ccccc2c1)C(=O)N[C@H](Cc1ccc(Cl)cc1)C(=O)N[C@H](Cc1cccnc1)C(=O)N[C@@H](CO)C(=O)N[C@@H](CCCCNC(=O)c1ccccn1)C(=O)N[C@H](C[C@H]1CC[C@@H](NC(=O)c2cnccn2)CC1)C(=O)N[C@@H](CC(C)C)C(=O)N[C@@H](CCCCNC(C)C)C(=O)N1CCC[C@H]1C(=O)N[C@H](C)C(N)=O` [IBR 25897] (Ac-[d2Nal][dPhe(4-Cl)][d3Pal]SK(Picolinoyl)[dAla(cis-4-NHCOPyz-cHex)]L[Lys(iPr)]P[dA]-NH2), 122.8 ± 5.7 mm^2 /10 μg; to `CC[C@H](C)[C@H](NC(=O)[C@@H](CCCCNC(=O)c1ccccn1)NC(=O)[C@H](CCCCNC(=O)c1ccccn1)NC(=O)[C@H](CO)NC(=O)[C@@H](Cc1cccnc1)NC(=O)[C@@H](Cc1ccc(Cl)cc1)NC(=O)[C@@H](Cc1ccc2ccccc2c1)NC(C)=O)C(=O)N[C@@H](CCCCNC(C)C)C(=O)N1CCC[C@H]1C(=O)N[C@H](C)C(N)=O` [compound 26020] (Ac-[d2Nal][dPhe(4-Cl)][d3Pal]SK(Picolinoyl)[dK](Picolinoyl)I[Lys(iPr)]P[dA]-NH2), 110.7 ± 2.3 mm^2 /10 μg. For `CCNC(=O)[C@@H]1CCCN1C(=O)[C@H](CCCCNC(C)C)NC(=O)[C@H](CC(C)C)NC(=O)[C@@H](C[C@H]1CC[C@@H](NC(=O)c2cnccn2)CC1)NC(=O)[C@H](CCCCNC(=O)c1ccccn1)NC(=O)[C@H](CO)NC(=O)[C@@H](Cc1cccnc1)NC(=O)[C@@H](Cc1ccc(Cl)cc1)NC(=O)[C@@H](Cc1ccc2ccccc2c1)NC(C)=O` [compound 26383] (Ac-[d2Nal][dPhe(4-Cl)][d3Pal]SK(Picolinoyl)[dAla(cis-4-NHCOPyz-cHex)]L[Lys(iPr)]P-NHEt), the “Wheal Area” value was found to be 119.6 ± 6.6 mm^2 /10 μg. The same measure, in the same setting: to `CC(=O)N[C@H](Cc1ccc2ccccc2c1)C(=O)N[C@H](Cc1ccc(Cl)cc1)C(=O)N[C@H](Cc1cccnc1)C(=O)N[C@@H](CO)C(=O)N[C@@H](CCCCNC(=O)c1ccccn1)C(=O)N[C@H](CCCCNC(=O)c1ccccn1)C(=O)N[C@H](C(=O)N[C@@H](CCCNC(C)C)C(=O)N1CCC[C@H]1C(=O)N[C@H](C)C(N)=O)C(C)C` [compound 26118] (Ac-[d2Nal][dPhe(4-Cl)][d3Pal]SK(Picolinoyl)[dK](Picolinoyl)V[Orn(iPr)]P[dA]-NH2) belongs 119.6 ± 6.6 mm^2 /10 μg.

Staying with this data set, now noted: Table I; 10 ug peptide intradermally.
For `CC(=O)N[C@H](Cc1ccc2ccccc2c1)C(=O)N[C@H](Cc1ccc(Cl)cc1)C(=O)N[C@H](Cc1cccnc1)C(=O)N[C@@H](CO)C(=O)N[C@@H](CCCCNC(=O)c1cccnc1)C(=O)N[C@H](CCCCNC(=O)c1cccnc1)C(=O)N[C@@H](CC(C)C)C(=O)N[C@@H](CCCCNC1CCCC1)C(=O)N1CCC[C@H]1C(=O)N[C@H](C)C(N)=O` [compound 25078] (Ac-[d2Nal][dPhe(4-Cl)][d3Pal]SK(Nicotinoyl)[dK](Nicotinoyl)L[X5]P[dA]-NH2), the Wheal is recorded as 147.0 mm^2 /10. On the same count and under the same terms, to `CC[C@H](C)[C@H](NC(=O)[C@H](CO)NC(=O)[C@@H](Cc1cccnc1)NC(=O)[C@@H](Cc1ccc(Cl)cc1)NC(=O)[C@@H](Cc1ccc2ccccc2c1)NC(C)=O)C(=O)N[C@H](CCCCNC(=O)c1cccnc1)C(=O)N[C@@H](CC(C)C)C(=O)N[C@@H](CCCCNC(C)C)C(=O)N1CCC[C@H]1C(=O)N[C@H](C)C(N)=O` [compound 25144] (Ac-[d2Nal][dPhe(4-Cl)][d3Pal]SI[dK](Nicotinoyl)L[Lys(iPr)]P[dA]-NH2) belongs 147.7 mm^2 /10; to `CC(=O)N[C@H](Cc1ccc2ccccc2c1)C(=O)N[C@H](Cc1ccc(Cl)cc1)C(=O)N[C@H](Cc1cccnc1)C(=O)N[C@@H](CO)C(=O)N[C@@H](CCCCNC(=O)c1cccnc1)C(=O)N[C@H](CCCCNC(=O)c1ccccn1)C(=O)N[C@@H](CC(C)C)C(=O)N[C@@H](CCCCNC(C)C)C(=O)N1CCC[C@H]1C(=O)N[C@H](C)C(N)=O` [compound 25589] (Ac-[d2Nal][dPhe(4-Cl)][d3Pal]SK(Nicotinoyl)[dK](Picolinoyl)L[Lys(iPr)]P[dA]-NH2), 120 ± 7 mm^2 /10.

Molecule `CC[C@H](C)[C@H](NC(=O)[C@H](CO)NC(=O)[C@@H](Cc1cccnc1)NC(=O)[C@@H](Cc1ccc(Cl)cc1)NC(=O)[C@@H](Cc1ccc2ccccc2c1)NC(C)=O)C(=O)N[C@H](CCCCNC(=O)c1cccnc1)C(=O)N[C@@H](CC(C)C)C(=O)N[C@@H](CCCNC(C)C)C(=O)N1CCC[C@H]1C(=O)N[C@H](C)C(N)=O` [compound 25145] (Ac-[d2Nal][dPhe(4-Cl)][d3Pal]SI[dK](Nicotinoyl)L[Orn(iPr)]P[dA]-NH2) gave a Wheal of 116.5 mm^2 /10. Still for that read-out and setting: to `CC(=O)N[C@H](Cc1ccc2ccccc2c1)C(=O)N[C@H](Cc1ccc(Cl)cc1)C(=O)N[C@H](Cc1cccnc1)C(=O)N[C@@H](CO)C(=O)N[C@@H](Cc1ccc(O)cc1)C(=O)N[C@H](CCCCNC(=O)c1cccnc1)C(=O)N[C@@H](CC(C)C)C(=O)N[C@@H](CCCNC(=N)N)C(=O)N1CCC[C@H]1C(=O)N[C@H](C)C(N)=O` [compound 22396] (Ac-[d2Nal][dPhe(4-Cl)][d3Pal]SY[dK](Nicotinoyl)LRP[dA]-NH2) belongs 85 mm^2 /10. Still for that read-out and setting: to `CC(=O)N[C@H](Cc1ccc2ccccc2c1)C(=O)N[C@H](Cc1ccc(Cl)cc1)C(=O)N[C@H](Cc1cccnc1)C(=O)N[C@@H](CO)C(=O)N[C@@H](Cc1ccc(O)cc1)C(=O)N[C@H](CCCNC(=N)N)C(=O)N[C@@H](CC(C)C)C(=O)N[C@@H](CCCCNC(=O)c1cccnc1)C(=O)N1CCC[C@H]1C(=O)N[C@H](C)C(N)=O` [compound 24749] (Ac-[d2Nal][dPhe(4-Cl)][d3Pal]SY[dR]LK(Nicotinoyl)P[dA]-NH2) belongs 136.3 mm^2 /10. The same measure, in the same setting: next, `COc1ccc(NC(=O)CC[C@@H](NC(=O)[C@H](CCCCNC(=O)c2cccnc2)NC(=O)[C@H](CO)NC(=O)[C@@H](Cc2cccnc2)NC(=O)[C@@H](Cc2ccc(Cl)cc2)NC(=O)[C@@H](Cc2ccc3ccccc3c2)NC(C)=O)C(=O)N[C@@H](CC(C)C)C(=O)N[C@@H](CCCCNC(C)C)C(=O)N2CCC[C@H]2C(=O)N[C@H](C)C(N)=O)cc1` [compound 25588] (Ac-[d2Nal][dPhe(4-Cl)][d3Pal]SK(Nicotinoyl)[dE](NH(4-MeO-phenyl))L[Lys(iPr)]P[dA]-NH2): 113 ± 7 mm^2 /10; `CC(=O)N[C@H](Cc1ccc2ccccc2c1)C(=O)N[C@H](Cc1ccc(Cl)cc1)C(=O)N[C@H](Cc1ccc(O)cc1)C(=O)N[C@@H](CO)C(=O)N[C@@H](CCCNC(=N)N)C(=O)N[C@H](CCCCNC(=O)c1cccnc1)C(=O)N[C@@H](CC(C)C)C(=O)N[C@@H](CCCNC(=N)N)C(=O)N1CCC[C@H]1C(=O)N[C@H](C)C(N)=O` [compound 24446] (Ac-[d2Nal][dPhe(4-Cl)][dY]SR[dK](Nicotinoyl)LRP[dA]-NH2): 113.2 mm^2 /10; `CC(=O)N[C@H](Cc1ccc2ccccc2c1)C(=O)N[C@H](Cc1ccc(Cl)cc1)C(=O)N[C@H](Cc1cccnc1)C(=O)N[C@@H](CO)C(=O)N[C@@H](CCCCNC(=O)c1cccnc1)C(=O)N[C@H](CCCCN(C)C)C(=O)N[C@@H](CC(C)C)C(=O)N[C@@H](CCCCNC(C)C)C(=O)N1CCC[C@H]1C(=O)N[C@H](C)C(N)=O` [compound 25591] (Ac-[d2Nal][dPhe(4-Cl)][d3Pal]SK(Nicotinoyl)[dLys(Me2)]L[Lys(iPr)]P[dA]-NH2): 111 ± 2 mm^2 /10.

The same data set, now with this note: Table XIV and text, unit not given.
Regarding `CC(=O)N[C@H](Cc1ccc2ccccc2c1)C(=O)N[C@H](Cc1ccc(Cl)cc1)C(=O)N[C@H](Cc1cccnc1)C(=O)N[C@@H](CO)C(=O)N[C@@H](CCCCNC(=O)c1ccccn1)C(=O)N[C@H](C[C@H]1CC[C@@H](NC(=O)c2cnccn2)CC1)C(=O)N[C@H](C(=O)N[C@@H](CCCCNC(C)C)C(=O)N1CCC[C@H]1C(=O)N[C@H](C)C(N)=O)C(C)C` [compound 26325] (Ac-[d2Nal][dPhe(4-Cl)][d3Pal]SK(Picolinoyl)[dAla(cis-4-NHCOPyz-cHex)]V[Lys(iPr)]P[dA]-NH2), the “Wheal (wheal response)” value is 127.8 ± 4.9. On the same count and under the same terms, to `CC[C@H](NC(=O)[C@@H](CCCCNC(=O)c1ccccn1)NC(=O)[C@H](CCCCNC(=O)c1ccccn1)NC(=O)[C@H](CO)NC(=O)[C@@H](Cc1cccnc1)NC(=O)[C@@H](Cc1ccc(Cl)cc1)NC(=O)[C@@H](Cc1ccc2ccccc2c1)NC(C)=O)C(=O)N[C@@H](CCCNC(=N)N)C(=O)N1CCC[C@H]1C(=O)N[C@H](C)C(N)=O` [compound 26346] (Ac-[d2Nal][dPhe(4-Cl)][d3Pal]SK(Picolinoyl)[dK](Picolinoyl)[Abu]RP[dA]-NH2) belongs 113.2 ± 5.4.
